This is an account of results in ChEMBL document CHEMBL3045114, “SAR studies of sesquiterpene lactones as Orobanche cumana seed germination stimulants” (2002).

SMILES strings stand for the structures. The source made the active and inactive calls. The calls are words filed in the database; no cut-off is given here.

The first experiment relates to Orobanche cernua var. cumana. Put plainly: Induction of Orobanche cernua var. cumana seed germination at 100 uM after 6 days. In kind it is functional.
Turning to `CC1=C[C@H](O/C=C2/C(=O)O[C@@H]3c4ccccc4C[C@H]23)OC1=O`, the Activity came out at 50%.

For a further experiment, the system named is Phelipanche ramosa. Put plainly: Induction of Orobanche ramosa seed germination at 100 uM after 6 days. It counts as functional.
On to `CC1=C[C@H](O/C=C2/C(=O)O[C@@H]3c4ccccc4C[C@H]23)OC1=O`, for which the Activity is recorded as 65%.

The test system of a further experiment is Orobanche crenata. As to the kind of experiment: Induction of Orobanche crenata seed germination at 100 uM after 6 days. It counts as functional.
In turn, `CC1=C[C@H](O/C=C2/C(=O)O[C@@H]3c4ccccc4C[C@H]23)OC1=O` registered an Activity of 80%.

The next experiment has as its system Orobanche crenata. As to the kind of experiment: Induction of Orobanche crenata seed germination after 6 days. It counts as functional.
As for `CC1=C[C@H](O/C=C2/C(=O)O[C@@H]3C4=C(CCC[C@@H]4C)C[C@H]23)OC1=O` [SORGOLACTONE], the Activity was >40%.

A further experiment concerns Orobanche minor. As to the kind of experiment: Induction of Orobanche minor seed germination at 0.001 uM after 6 days. It counts as functional.
For `CC1=CC(O/C=C2/C(=O)OC3C2C=C2CCCC(C)(C)C23O)OC1=O` (stereo unspecified) [ALECTROL], the Activity was >40%. Still for that read-out and setting: for `CC1=C[C@H](O/C=C2/C(=O)O[C@@H]3C4=C(C[C@H]23)[C@@H](O)CCC4(C)C)OC1=O` [STRIGOL] the value was >40%; for `CC1=C[C@H](O/C=C2/C(=O)O[C@@H]3C4=C(CCCC4(C)C)[C@@H](O)[C@H]23)OC1=O` [OROBANCHOL], >40%.

Regarding `COC(=O)/C(=C/O[C@H]1C=C(C)C(=O)O1)N1C(=O)c2ccccc2C1=O` [NIJMEGEN-1], the Activity is on record as 0%.

Another experiment deals with Orobanche cernua var. cumana. As to the kind of experiment: Induction of Orobanche cernua var. cumana seed germination at 10 uM after 6 days. In kind it is functional.
With `C=C1C(=O)O[C@@H]2C3O[C@]3(C)CC/C=C(\C)CC[C@@H]12` (stereo partly specified), the Activity is reported as >40%. As to `C/C1=C\CC[C@@]2(C)O[C@@H]2[C@H]2OC(=O)[C@](C)(O)[C@@H]2CC1`, the Activity amounted to 0%. On the same count and under the same terms, for `C=C1C2[C@H]3OC(=O)C(=C)[C@@H]3CC[C@@]2(C)[C@H](O)C[C@H]1O` (stereo partly specified) the value was “inactive”. Consider `C=C1C(=O)O[C@H]2[C@H]1CC[C@@]1(C)[C@H](O)CC=C(C)[C@]21O`, for which the outcome was inactive. The same measure, in the same setting: to `C=C1C(=O)O[C@@H]2/C=C(\C)CC/C=C(/CO)CC[C@@H]12` belongs 0%; to `C=C1C(=O)O[C@H]2[C@H]1CCC(=C)[C@]1(O)C[C@@H](O)C(=C)[C@]21O`, 0%. On the same count and under the same terms, for `C=C1CC[C@H]2[C@H](CO)C(=O)O[C@@H]2C2C(=C)[C@H](O)CC12` (stereo partly specified) the value was >40%; for `C=C1CC[C@H]2[C@H](CO)C(=O)O[C@@H]2C2C(=C)CCC12` (stereo partly specified), >40%.

With `CC1=C[C@@H](O/C=C2/C(=O)O[C@H]3C=CC[C@@H]23)OC1=O`, the Activity was 0%. Same read-out and setting: for `C=C1C(=O)O[C@@H]2/C=C(\C)CC[C@H]3O[C@]3(C)CC[C@@H]12` [1,10-EPOXYCOSTUNOLIDE] the value was >40%; for `C=C1CC[C@@H](O)[C@]2(C)CC[C@H]3C(=C)C(=O)O[C@@H]3[C@@H]12` [REYNOSIN], 0%; for `CC1=C[C@H](O/C=C2/C(=O)O[C@@H]3c4ccccc4C[C@H]23)OC1=O`, 65%. Same read-out and setting: to `C=C1[C@@H]2[C@H]3OC(=O)C(=C)[C@@H]3CCC(=C)[C@@H]2C[C@H]1O` [ISOZALUZANIN C] belongs >40%.
